We go through one compound from US20230404922A1, “MICROSPHERE FORMULATIONS COMPRISING BTK INHIBITORS AND METHODS FOR MAKING AND USING THE SAME” (Oakwood Laboratories, LLC, priority 2021, published 2023).

Structures are written as SMILES.

The conditions of data set [1]: cited from earlier work.

For the compound `C=CC(=O)N1CCC[C@@H](n2nc(-c3ccc(Oc4ccccc4)cc3)c3c(N)ncnc32)C1` [ibrutinib, Ibrutinib], the “solubility in dichloromethane (DCM)” value (DCM) is greater than 300 mg/g. The compound also gave an aqueous solubility (water) of less than 2.5 mg/g. In data set [1], the pKa entry was “about 3.74”.
